The values that follow come from PMC7897990, “TriTOX: A novel Trichomonas vaginalis assay platform for high-throughput screening of compound libraries” (International Journal for Parasitology: Drugs and Drug …, 2021).

Data set [1] relates to Trichomonas vaginalis G3 trophozoites. In words: microbe, parasite or virus in culture. The following applies: 48 h.
Data set [2] relates to nontumorigenic neonatal foreskin fibroblast (NFF) cell line.
Data set [3] concerns Trichomonas vaginalis G3 trophozoites.
Setting [4] is: NFF fibroblasts, single concentration 5 µg/mL.
Where [5] appears, read: HTS replicate 1, parasite screen 1 µg/mL.
[6] abbreviates: HTS replicate 2, parasite screen 1 µg/mL.
The mark [7] stands for this setting: NFF fibroblast screen at 5 µg/mL, A = active, I = inactive.
[8] abbreviates: HTS, parasite screen at 1 µg/mL, replicate 1.
Setting [9] is: HTS, parasite screen at 1 µg/mL, replicate 2.
Where [10] appears, read: HTS, parasite screen at 1 µg/mL, replicate 1, raw absorbance.
The mark [11] stands for this setting: HTS, parasite screen at 1 µg/mL, replicate 2, raw absorbance.

Counter-ions that a name gives are not always drawn. Like-named read-outs stand apart in the source and are kept apart here. Non-standard residues stand in square brackets, D forms with d. Residues, ends and D or L forms follow the SMILES beside them. GABA = NCCCC(=O)O

Take `CN(C)[C@H]1C(O)=C(C(N)=O)C(=O)[C@@]2(O)C(O)=C3C(=O)c4c(O)cccc4[C@@](C)(O)[C@H]3C[C@@H]12` [Epitetracycline hydrochloride]: the inhibition of growth at 1 µg/mL is 11% in data set [1] (read-out: T.vaginalis_%inb_Rep1) and 4.41% in data set [1] (read-out: T.vaginalis_%inb_Rep2).
In the case of `C[C@@]12CCC[C@@]34CCC[C@@H](C=C[C@H]1CC3)N42` [Porantherine], the NFF_Activity entry in data set [2] (setting [4]) is “I (otherwise these were reported as inactive (I))”. Further, the T.vaginalis_%inb_Rep1 in data set [3] (setting [5]) is 9.49%. For the same compound, in data set [3] (setting [6]), the T.vaginalis_%inb_Rep2 is recorded as 15.78%.
As for `C[C@@H]1CC[C@H](O)/C=C/C(=O)O[C@H](C)CC[C@H](O)/C=C/C(=O)O1` [Pyrenophorol], the NFF_Activity entry in data set [2] (setting [4]) was “I (otherwise these were reported as inactive (I))”. For the same compound, in data set [3] (setting [5]), the T.vaginalis_%inb_Rep1 is 10.44%. The same compound gave a T.vaginalis_%inb_Rep2 in data set [3] (setting [6]) of 11.15%.
Take `C[C@H]1NC(=O)[C@@H]2CCCCN2C(=O)CN(C)C(=O)CNC(=O)[C@@H]2CCCCN2C(=O)[C@H](NC(=O)c2nc3ccccc3cc2O)[C@@H](C)NC(=O)[C@@H]2CCCCN2C(=O)CN(C)C(=O)CNC(=O)[C@@H]2CCCCN2C(=O)[C@@H]1NC(=O)c1nc2ccccc2cc1O` [Quinaldopeptin]: in data set [2] (setting [4]), the NFF_Activity result is “I (otherwise these were reported as inactive (I))”. In data set [3] (setting [5]), the T.vaginalis_%inb_Rep1 turned out to be 92.82%. The same compound registered a T.vaginalis_%inb_Rep2 in data set [3] (setting [6]) of 95.37%.
On to `CC1=CC2C(O)CCCC2C(C)(C(O)=C2C(=O)CNC2=O)C1CCC(C)C(O)/C(C)=C/CC(O)/C=C/C(C)C(O)/C=C/CC(O)/C=C/CC(O)CC1CCCN1C(=N)N` (stereo not drawn) [TPU-0037C], for which, in data set [2] (setting [7]), the NFF_Activity entry is “I (otherwise these were reported as inactive (I))”. The compound further had a T.vaginalis_%inb_Rep1 in data set [3] (setting [8]) of 9.28%. The T.vaginalis_%inb_Rep2 in data set [3] (setting [9]) is reported as 14.69%.
In the case of `CO[C@H]1/C=C\C=C(\C)C[C@H](C)[C@H](O)[C@H](C)/C=C(C)\C=C(\C)C(=O)O[C@@H]1[C@@H](C)[C@@H](O)[C@H](C)[C@@]1(O)C[C@@H](OC(=O)/C=C/C(=O)O)[C@H](C)[C@@H](C(C)C)O1` [TS 155-2], the NFF_Activity entry in data set [2] (setting [7]) is “I (otherwise these were reported as inactive (I))”. Moreover, in data set [3] (setting [8]), the T.vaginalis_%inb_Rep1 was 71.89%. Further, the T.vaginalis_%inb_Rep2 in data set [3] (setting [9]) amounted to 89.46%.
For the compound `CCC1OC(=O)CC(O)C(C)C(OC2OC(C)C(O)C(N(C)C)C2O)C(CCN2CC(C)CC(C)C2)CC(C)C(=O)C=CC(C)=CC1COC1OC(C)C(O)C(OC)C1OC.O=P(O)(O)O` (stereo not drawn) [Tilmicosin phosphate], in data set [2] (setting [7]), the NFF_Activity entry is “I (otherwise these were reported as inactive (I))”. In data set [3] (setting [8]), this compound yielded a T.vaginalis_%inb_Rep1 of 8.60%. The T.vaginalis_%inb_Rep2 in data set [3] (setting [9]) was 12.37%.
Regarding `CC[C@H]1C[C@@H]2CC[C@@H](O2)[C@@H](C)C(=O)O[C@H](CC)C[C@H]2CC[C@H](O2)[C@H](C)C(=O)O[C@@H](C)C[C@@H]2CC[C@@H](O2)[C@@H](C)C(=O)O[C@H](CC)C[C@H]2CC[C@H](O2)[C@H](C)C(=O)O1` [Trinactin], in data set [2] (setting [7]), the NFF_Activity result was “I (otherwise these were reported as inactive (I))”. For the same compound, the T.vaginalis_%inb_Rep1 in data set [3] (setting [8]) was 11.27%. Moreover, in data set [3] (setting [9]), the T.vaginalis_%inb_Rep2 was 13.47%.
For `O=C(O)c1cccc2nc3ccccc3nc12` [Tubermycin B] the same measures were “I (otherwise these were reported as inactive (I))”, 8.13% and 16.27%.
For `CN[C@@H]1C[C@H]2O[C@@](C)([C@@H]1OC)n1c3ccccc3c3c4c(c5c6ccccc6n2c5c31)C(=O)N[C@H]4O` [UCN-01], in that order: “A (active (A) compounds having >25% inhibitory activity)”, 11.33% and 13.65%.
For `CN[C@@H]1C[C@H]2O[C@@](C)([C@@H]1OC)n1c3ccccc3c3c4c(c5c6ccccc6n2c5c31)C(=O)N[C@H]4O` [UCN-02] the same measures were “A (active (A) compounds having >25% inhibitory activity)”, 9.65% and 20.96%.
In the case of `COC(=O)c1cccc2oc(-c3cccc4oc(-c5ccccc5O)nc34)nc12` [UK-1], the NFF_Activity result in data set [2] (setting [7]) was “I (otherwise these were reported as inactive (I))”. Moreover, the T.vaginalis_%inb_Rep1 in data set [3] (setting [8]) is given as 10.64%. Moreover, the T.vaginalis_%inb_Rep2 in data set [3] (setting [9]) came to 15.36%.
In the case of `CCOCCO[C@@H]1CC[C@@H](C[C@@H](C)[C@@H]2CC(=O)[C@H](C)/C=C(\C)[C@@H](O)[C@@H](OC)C(=O)[C@H](C)C[C@H](C)/C=C/C=C/C=C(\C)[C@@H](OC)C[C@@H]3CC[C@@H](C)[C@@](O)(O3)C(=O)C(=O)N3CCCC[C@H]3C(=O)O2)C[C@H]1OC` [Umirolimus], the NFF_Activity entry in data set [2] (setting [7]) was “I (otherwise these were reported as inactive (I))”. In data set [3] (setting [8]), this compound showed a T.vaginalis_%inb_Rep1 of 9.81%. In addition, in data set [3] (setting [9]), the T.vaginalis_%inb_Rep2 was 13.47%.
For `CC(C)[C@H]1NC(=O)[C@H](Cc2ccccc2)NC(=O)[C@@H](C(C)C)NC(=O)[C@@H](C)NC(=O)CCCNC(=O)[C@@H](Cc2c[nH]c3ccccc23)NC(=O)[C@@H](C)NC1=O` [Unguisin A] (cyclo(F[dV][dA][dW][GABA][dA][dV])), in that order: “I (otherwise these were reported as inactive (I))”, 9.07% and 14.50%.
For `OCC1=CC(NC2CC(CO)C(OC3OC(CO)C(O)C(O)C3O)C(O)C2O)C(O)C(O)C1O` (stereo not drawn) [Validamycin A], in that order: “I (otherwise these were reported as inactive (I))”, 14.26% and 19.07%.
For `CCC(=O)[C@@H](C)[C@@H](O)[C@H](C)C[C@@H](C)[C@H]1OC(=O)C[C@@]2(O)CC=C(C)[C@H](O2)/C(C)=C/CCC[C@@H](O[C@H]2C[C@@H](OC(N)=O)[C@H](O)[C@@H](C)O2)/C=C/[C@H](C)C[C@H]1C` [Venturicidin A], in that order: “I (otherwise these were reported as inactive (I))”, 9.49% and 12.92%.
For `CCC(=O)[C@@H](C)[C@@H](O)[C@H](C)C[C@@H](C)[C@H]1OC(=O)C[C@@]2(O)CC=C(C)[C@H](O2)/C(C)=C/CCC[C@@H](O[C@H]2C[C@@H](O)[C@H](O)[C@@H](C)O2)/C=C/[C@H](C)C[C@H]1C` [Venturicidin B], in data set [2] (setting [7]), the NFF_Activity entry was “I (otherwise these were reported as inactive (I))”. The T.vaginalis_%inb_Rep1 in data set [3] (setting [8]) was determined as 9.81%. In data set [3] (setting [9]), this compound registered a T.vaginalis_%inb_Rep2 of 16.33%.
Take `CC1CCCC(O)CCCCCc2cc(O)cc(O)c2C(=O)O1` (stereo not drawn) [Zearalanol, alpha-]: in data set [2] (setting [7]), the NFF_Activity result was “I (otherwise these were reported as inactive (I))”. The T.vaginalis_%inb_Rep1 in data set [3] (setting [8]) was found to be 6.97%. This compound yielded a T.vaginalis_%inb_Rep2 in data set [3] (setting [9]) of 13.04%.
As for `CC1CCCC(O)CCCCCc2cc(O)cc(O)c2C(=O)O1` (stereo not drawn) [Zearalanol, beta-], the NFF_Activity result in data set [2] (setting [7]) was “I (otherwise these were reported as inactive (I))”. In data set [3] (setting [8]), this compound returned a T.vaginalis_%inb_Rep1 of 9.65%. Further, in data set [3] (setting [9]), the T.vaginalis_%inb_Rep2 is reported as 13.83%.
`C[C@@H]1CCC[C@@H](O)CCC/C=C/c2cc(O)cc(O)c2C(=O)O1` [Zearalenol, alpha-]: the NFF_Activity entry in data set [2] (setting [7]) was “I (otherwise these were reported as inactive (I))”. Also, the T.vaginalis_%inb_Rep1 in data set [3] (setting [8]) is given as 11.90%. The same compound had a T.vaginalis_%inb_Rep2 in data set [3] (setting [9]) of 12.68%.
Consider `C[C@@H]1CCC[C@H](O)CCC/C=C/c2cc(O)cc(O)c2C(=O)O1` [Zearalenol, beta-], for which the NFF_Activity entry in data set [2] (setting [7]) is “I (otherwise these were reported as inactive (I))”. In addition, the T.vaginalis_%inb_Rep1 in data set [3] (setting [8]) is reported as 9.54%. In data set [3] (setting [9]), this compound returned a T.vaginalis_%inb_Rep2 of 15.05%.
Diacetoxyscirpenol: the NFF_Activity result in data set [2] was “I (key: active (A) compounds having >25% inhibitory activity; otherwise these were reported as inactive (I))”. In data set [3], this compound yielded a T.vaginalis_%inb_Rep1 of 8.29%, a T.vaginalis_%inb_Rep2 of 9.08%, a T.vaginalis_Absorbance_Rep1 of 0.923 and a T.vaginalis_Absorbance_Rep2 of 0.786.
Turning to Dihydrocyclosporin A, the NFF_Activity entry in data set [2] (NFF_NS1 screen at 5 µg/mL) was “I (otherwise these were reported as inactive (I))”. In addition, the T.vaginalis_%inb_Rep1 in data set [3] (setting [8]) worked out at 11.52%. Also, the T.vaginalis_Absorbance_Rep1 in data set [3] (setting [10]) was determined as 0.923. In data set [3] (setting [9]), this compound showed a T.vaginalis_%inb_Rep2 of 13.52%. The T.vaginalis_Absorbance_Rep2 in data set [3] (setting [11]) is recorded as 0.807.
In the case of Echinocandin B, in data set [2] (NFF_NS1 screen at 5 µg/mL), the NFF_Activity result is “I (otherwise these were reported as inactive (I))”. Further, in data set [3] (setting [8]), the T.vaginalis_%inb_Rep1 stood at 15.24%. The same compound had a T.vaginalis_Absorbance_Rep1 in data set [3] (setting [10]) of 0.992. Moreover, in data set [3] (setting [9]), the T.vaginalis_%inb_Rep2 was 6.58%. The compound further had a T.vaginalis_Absorbance_Rep2 in data set [3] (setting [11]) of 0.711.
Consider Eprinomectin, for which the NFF_Activity result in data set [2] (NFF_NS1 screen at 5 µg/mL) is “I (otherwise these were reported as inactive (I))”. For the same compound, in data set [3] (setting [8]), the T.vaginalis_%inb_Rep1 came to 12.49%. The same compound displayed a T.vaginalis_Absorbance_Rep1 in data set [3] (setting [10]) of 0.941. This compound also gave a T.vaginalis_%inb_Rep2 in data set [3] (setting [9]) of 15.33%. In data set [3] (setting [11]), this compound gave a T.vaginalis_Absorbance_Rep2 of 0.832.
With Fulvic acid, in data set [2] (NFF_NS1 screen at 5 µg/mL), the NFF_Activity entry was “I (otherwise these were reported as inactive (I))”. In data set [3] (setting [8]), this compound returned a T.vaginalis_%inb_Rep1 of 12.65%. For the same compound, in data set [3] (setting [10]), the T.vaginalis_Absorbance_Rep1 was determined as 0.944. The T.vaginalis_%inb_Rep2 in data set [3] (setting [9]) is reported as 4.34%. The T.vaginalis_Absorbance_Rep2 in data set [3] (setting [11]) is recorded as 0.68.
Consider Nargenicin, for which, in data set [2] (setting [4]), the NFF_Activity entry was “I (otherwise these were reported as inactive (I))”. This compound also came in with a T.vaginalis_%inb_Rep1 in data set [3] (setting [5]) of 10.70%. For the same compound, the T.vaginalis_%inb_Rep2 in data set [3] (setting [6]) is listed as 13.02%.
For Orfamide A the same measures were “I (otherwise these were reported as inactive (I))”, 9.99% and 10.90%.
For Pladienolide B, in that order: “I (otherwise these were reported as inactive (I))”, 11.92% and 13.15%.
With Viridicatumtoxin, in data set [2] (setting [7]), the NFF_Activity entry is “I (otherwise these were reported as inactive (I))”. The same compound had a T.vaginalis_%inb_Rep1 in data set [3] (setting [8]) of 8.70%. The compound further returned a T.vaginalis_%inb_Rep2 in data set [3] (setting [9]) of 2.74%.
